Assay results: patent publication US12643887B2, “Heterocyclic derivatives with cardiomyocyte proliferation activity for treatment of heart diseases” (Tongji University, priority 2019, dated 2026)

Columns and labels:
human HIPK2 = molecular target: T1, human HIPK2 (Homo sapiens, UniProt Q9H2X6); assay: HIPK2 enzyme assay (ADP-Glo); format: biochemical; settings: ADP-Glo, ATP 5 μM; read-out: HIPK2 IC50
T1 construct: Recombinant human HIPK2 (1-640); GST (N); purchased SignalChem H04-11BG; host or cells: Sf9 insect cells
T1 sequence (Q9H2X6 1-640): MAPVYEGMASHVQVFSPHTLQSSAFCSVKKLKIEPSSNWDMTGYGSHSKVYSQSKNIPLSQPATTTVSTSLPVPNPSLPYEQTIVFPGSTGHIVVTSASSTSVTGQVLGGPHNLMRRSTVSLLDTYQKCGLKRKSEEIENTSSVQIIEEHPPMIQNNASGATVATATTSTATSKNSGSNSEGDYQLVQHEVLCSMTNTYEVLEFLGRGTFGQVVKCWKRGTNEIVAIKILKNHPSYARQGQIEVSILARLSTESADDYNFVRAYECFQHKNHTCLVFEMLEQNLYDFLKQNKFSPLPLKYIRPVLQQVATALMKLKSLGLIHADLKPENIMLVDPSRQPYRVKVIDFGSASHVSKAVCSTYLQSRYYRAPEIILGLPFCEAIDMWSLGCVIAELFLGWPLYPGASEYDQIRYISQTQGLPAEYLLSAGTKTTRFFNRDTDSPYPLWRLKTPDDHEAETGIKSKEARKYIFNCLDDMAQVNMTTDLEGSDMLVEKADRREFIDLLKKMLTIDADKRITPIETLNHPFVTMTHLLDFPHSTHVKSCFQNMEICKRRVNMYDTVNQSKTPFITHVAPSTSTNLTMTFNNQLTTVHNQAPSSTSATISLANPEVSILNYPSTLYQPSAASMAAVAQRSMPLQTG
Protocol: The ability of compounds to inhibit human HIPK2 kinase activities was determined using a commercially available ADP-Glo™ Kinase Assay kit (Promega, Cat #V9102) according to the manufacturer's protocol.
(§1) Recombinant human HIPK2 (1-640) (expressed in Sf9 insect cells with an N-terminal GST tag) was purchased from SignalChem (Cat #H04-11BG). Recombinant full length human MBP (expressed in E. Coli cells with an N-terminal GST tag) was purchased from SignalChem (Cat #M42-54G). This assay, run in a 384-well plate format, is a generic method for measuring kinase activities using an ADP-Glo Kinase Assay Kit. The basic assay procedure involves two steps: (1) Enzymatic step: inhibitors are incubated with the kinase and then ATP (included in the ADP-Glo Kinase Assay Kit) and the MBP protein are added to start the enzymatic reaction; (2) Detection step: after the kinase reaction, first ADP-Glo™ Reagent is added to terminate the kinase reaction and deplete the remaining ATP. Second, the Kinase Detection Reagent is added to simultaneously convert ADP to ATP and allow the newly synthesized ATP to be measured using a luciferase/luciferin reaction. The light generated is measured using a luminometer.
(§2) Briefly, HIPK2 (1 nM) in the enzymatic buffer solutions (40 mM Tris, pH 7.5, 20 mM MgCl2, 0.1 mg/ml BSA, 50 μM DTT) were mixed with various concentrations of inhibitors (dissolved in 100% DMSO). These solutions were incubated for 30 minutes at 25° C., and subsequently a mixture of substrate peptide and ATP was added with the final peptide and ATP concentrations at 0.05 mg/ml and 5 μM, respectively. The final reaction mixture of enzyme-substrate-ATP-compound was incubated for 90 minutes at 25° C.
(§3) Afterwards ADP-Glo™ Reagent was added and the mixture was incubated at 25° C. for 60 minutes. Then Kinase Detection Reagent was added, and the final mixture was incubated at 25° C. for 60 minutes. The luminescence signal of the final solution was measured on an Envision instrument (PerkinElmer). The percent (%) inhibition at each concentration of a compound is calculated relative to the luminescence signal in the Max and Min control wells contained within each assay plate. […] The concentrations and percent inhibition values for a test compound are plotted and the concentration of the compound required to achieve 50% inhibition (IC50) is determined with a four-parameter logistic dose response equation.

human GSK3 beta = molecular target: T2, human GSK3 beta (Homo sapiens, UniProt P49841); assay: GSK3 beta enzyme assay (ADP-Glo); format: biochemical; settings: ATP 25 μM, read-out: GSK3b IC50
T2 construct: Recombinant full-length human GSK3 beta (expressed in Sf9 insect cells with an N-terminal His tag); His (N); purchased SignalChem G09-10H; host or cells: Sf9 insect cells
T2 sequence (P49841 whole entry): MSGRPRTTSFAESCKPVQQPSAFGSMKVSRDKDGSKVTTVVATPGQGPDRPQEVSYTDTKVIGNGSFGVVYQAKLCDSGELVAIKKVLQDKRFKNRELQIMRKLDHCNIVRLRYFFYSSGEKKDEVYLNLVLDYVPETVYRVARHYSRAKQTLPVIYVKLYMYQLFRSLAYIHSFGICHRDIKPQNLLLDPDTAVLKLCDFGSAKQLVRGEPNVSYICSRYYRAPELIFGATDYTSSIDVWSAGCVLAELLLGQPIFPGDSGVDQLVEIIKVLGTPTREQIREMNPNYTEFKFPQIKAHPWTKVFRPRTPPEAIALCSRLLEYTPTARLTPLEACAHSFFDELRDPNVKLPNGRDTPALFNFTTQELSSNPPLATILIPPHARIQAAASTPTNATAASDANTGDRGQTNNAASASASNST
Protocol: 1. GSK3 Beta Enzyme Assay
The ability of compounds to inhibit human GSK3 beta kinase activities was determined using a commercially available ADP-Glo™ Kinase Assay kit (Promega, Cat #V9102) according to the manufacturer's protocol. The ADP-Glo™ Kinase Assay is a luminescent ADP detection assay that provides a universal, homogeneous, high-throughput screening method to measure kinase activity by quantifying the amount of ADP produced during a kinase reaction. The ADP-Glo™ Kinase Assay can be used to monitor the activity of virtually any ADP-generating enzymes (e.g., kinases or ATPases).
as §1, with “Recombinant full-length” for “Recombinant”, “GSK3 beta” for “HIPK2 (1-640)”, “His” for “GST”, “#G09-10H). The GSK3 substrate peptide (sequence: […](pS)EDEEE)” for “#H04-11BG). Recombinant full length human MBP (expressed in E. Coli cells with an N-terminal GST tag)”, “#G50-58).” for “#M42-54G).”, “GSK3 substrate peptide” for “MBP protein”
as §2, with “Briefly, GSK3 beta (4” for “Briefly, HIPK2 (1”, “at 13 μM” for “at 0.05 mg/ml”, “and 25” for “and 5”, “for 60” for “for 90”
as §3, with “added” for “added,”

Row | SMILES | IC50 (human HIPK2) [µM] | IC50 (human GSK3 beta) [µM]
1 | O=C1NC(Nc2ccc3ncsc3c2)=N/C1=C\c1ccc2ncsc2c1 [Example 48, (Z)-2-(benzo[d]thiazol-6-ylamino)-5-(benzo[d]thiazol-6-ylmethylene)-3,5-dihydro-4H-imidazol-4-one] | < 0.1 | > 10
2 | CC(C)NC1=N/C(=C\c2ccc3scnc3c2)C(=O)N1 [Example 49, (Z)-5-(benzo[d]thiazol-5-ylmethylene)-2-(isopropylamino)-3,5-dihydro-4H-imidazol-4-one] | > 10 | > 10
3 | O=C1NC(NC23CC4CC(CC(C4)C2)C3)=N/C1=C\c1ccc2scnc2c1 [Example 50, (Z)-2-(adamantan-1-ylamino)-5-(benzo[d]thiazol-5-ylmethylene)-3,5-dihydro-4H-imidazol-4-one] | > 10 | > 10
4 | O=C1NC(Nc2ccccc2)=N/C1=C\c1ccc2[nH]ccc2c1 [Example 51, (Z)-5-((1H-indol-5-yl)methylene)-2-(phenylamino)-3,5-dihydro-4H-imidazol-4-one] | > 10 | > 10
5 | O=C1NC(Nc2ccccc2)=N/C1=C\c1ccc2occc2c1 [Example 52, (Z)-5-(benzofuran-5-ylmethylene)-2-(phenylamino)-3,5-dihydro-4H-imidazol-4-one] | > 10 | > 10
6 | O=C1NC(Nc2ccccc2)=N/C1=C\c1ccc2ncccc2c1 [Example 53, (Z)-2-(phenylamino)-5-(quinolin-6-ylmethylene)-3,5-dihydro-4H-imidazol-4-one] | 0.1 to 1 | > 10
7 | O=C1NC(Nc2ccccc2)=N/C1=C\c1ccc2cn[nH]c2c1 [Example 54, (Z)-5-((1H-indazol-6-yl)methylene)-2-(phenylamino)-3,5-dihydro-4H-imidazol-4-one] | > 10 | > 10
8 | O=C1NC(Nc2ccccc2)=N/C1=C\c1ccc2[nH]ncc2c1 [Example 55, (Z)-5-((1H-indazol-5-yl)methylene)-2-(phenylamino)-3,5-dihydro-4H-imidazol-4-one] | 0.1 to 1 | 0.1 to 1
9 | O=C1NC(Nc2ccccc2)=N/C1=C\c1ccc2nn[nH]c2c1 [Example 56, (Z)-5-((1H-benzo[d][1,2,3]triazol-6-yl)methylene)-2-(phenylamino)-3,5-dihydro-4H-imidazol-4-one] | 1 to 10 | 1 to 10
10 | O=C1NC(Nc2ccc3ncsc3c2)=N/C1=C\c1ccc2scnc2c1 [Example 57, (Z)-5-(benzo[d]thiazol-5-ylmethylene)-2-(benzo[d]thiazol-6-ylamino)-3,5-dihydro-4H-imidazol-4-one] | 0.1 to 1 | > 10
11 | O=C1NC(Nc2ccc3ncsc3c2)=N/C1=C\c1ccc2[nH]ccc2c1 [Example 58, (Z)-5-((1H-indol-5-yl)methylene)-2-(benzo[d]thiazol-6-ylamino)-3,5-dihydro-4H-imidazol-4-one] | > 10 | > 10
12 | O=C1NC(Nc2ccc3ncsc3c2)=N/C1=C\c1ccc2occc2c1 [Example 59, (Z)-2-(benzo[d]thiazol-6-ylamino)-5-(benzofuran-5-ylmethylene)-3,5-dihydro-4H-imidazol-4-one] | > 10 | > 10
13 | O=C1NC(Nc2ccc3ncsc3c2)=N/C1=C\c1ccc2cccnc2c1 [Example 60, (Z)-2-(benzo[d]thiazol-6-ylamino)-5-(quinolin-7-ylmethylene)-3,5-dihydro-4H-imidazol-4-one] | > 10 | > 10
14 | Cn1cnc2cc(NC3=N/C(=C\c4ccc5ncsc5c4)C(=O)N3)ccc21 [Example 61, (Z)-5-(benzo[d]thiazol-6-ylmethylene)-2-((1-methyl-1H-benzo[d]imidazol-5-yl)amino)-3,5-dihydro-4H-imidazol-4-one] | 0.1 to 1 | 0.1 to 1
15 | O=C1NC(Nc2ccc3ncsc3c2)=N/C1=C\c1ccc2cc[nH]c2c1 [Example 63, (Z)-5-((1H-indol-6-yl)methylene)-2-(benzo[d]thiazol-6-ylamino)-3,5-dihydro-4H-imidazol-4-one] | > 10 | > 10
16 | O=C1NC(Nc2ccc3[nH]ccc3c2)=N/C1=C\c1ccc2ncsc2c1 [Example 69, (Z)-2-((1H-indol-5-yl)amino)-5-(benzo[d]thiazol-6-ylmethylene)-3,5-dihydro-4H-imidazol-4-one] | < 0.1 | 0.1 to 1
17 | CN(C1=N/C(=C\c2ccc3c(c2)OCO3)C(=O)N1)c1ccc2ncsc2c1 [Example 70, (Z)-5-(benzo[d][1,3]dioxol-5-ylmethylene)-2-(benzo[d]thiazol-6-yl(methyl)amino)-3,5-dihydro-4H-imidazol-4-one] | > 10 | > 10
18 | Cn1cnc2cc(/C=C3\N=C(Nc4ccccc4)NC3=O)ccc21 [Example 71, (Z)-5-((1-methyl-1H-benzo[d]imidazol-5-yl)methylene)-2-(phenylamino)-3,5-dihydro-4H-imidazol-4-one] | > 10 | > 10
19 | O=C1NC(Nc2ccccc2)=N/C1=C\c1ccc2sccc2c1 [Example 72, (Z)-5-(benzo[b]thiophen-5-ylmethylene)-2-(phenylamino)-3,5-dihydro-4H-imidazol-4-one] | > 10 | > 10
20 | O=C1NC(Nc2ccccc2)=N/C1=C\c1ccc2cc[nH]c2c1 [Example 73, (Z)-5-((1H-indol-6-yl)methylene)-2-(phenylamino)-3,5-dihydro-4H-imidazol-4-one] | > 10 | > 10
21 | O=C1NC(Nc2ccc3ncsc3c2)=N/C1=C\c1ccc2c(c1)OCCO2 [Example 74, (Z)-2-(benzo[d]thiazol-6-ylamino)-5-((2,3-dihydrobenzo[b][1,4]dioxin-6-yl)methylene)-3,5-dihydro-4H-imidazol-4-one] | > 10 | > 10
22 | Cn1cnc2ccc(/C=C3\N=C(Nc4ccc5ncsc5c4)NC3=O)cc21 [Example 75, (Z)-2-(benzo[d]thiazol-6-ylamino)-5-((1-methyl-1H-benzo[d]imidazol-6-yl)methylene)-3,5-dihydro-4H-imidazol-4-one] | < 0.1 | 0.1 to 1
23 | O=C1NC(Nc2ccc3ncsc3c2)=N/C1=C\c1ccc2nc[nH]c2c1 [Example 76, (Z)-5-((1H-benzo[d]imidazol-6-yl)methylene)-2-(benzo[d]thiazol-6-ylamino)-3,5-dihydro-4H-imidazol-4-one] | 0.1 to 1 | 0.1 to 1
